Data reported in the Deep4Chem optical property database.
Values joined by “and” are separate entries in the source; they are usually repeats but may differ in a detail not shown here. Equal entries are not always repeated. Blank lines part the entries; values can stand above or below the compound they belong to.

Assay: solvent given as SMILES

absorption maximum (in C1CCOC1): 366 nm
absorption maximum (in CC#N): 366 nm
absorption maximum (in CCO): 366 nm
absorption maximum (in CCOC(C)=O): 366 nm
absorption maximum (in CN(C)C=O): 358 nm
absorption maximum (in ClCCl): 370 nm
absorption maximum (in c1ccccc1): 370 nm
Compound: COc1ccc([C@@H]2C[C@](O)(c3ccccn3)C[C@](O)(c3ccccn3)[C@H]2C(=O)c2ccc(N(c3ccccc3)c3ccccc3)cc2)cc1

absorption maximum (in CCO): 369 nm
Compound: O=c1c2cc(F)c(O)cc2oc2cc(O)c(F)cc12

absorption maximum (in ClC(Cl)Cl): 412 nm
Compound: CCN(CC)c1ccc2cc(-c3ccc(-c4c5ccccc5c(-c5ccc(-c6cc7ccc(N(CC)CC)cc7oc6=O)cc5)c5ccccc45)cc3)c(=O)oc2c1

Compound: O=C1c2cccc3cc4ccccc4c(c23)C(=O)N1Cc1ccccn1
absorption maximum (in C1CCOC1): 432 nm
absorption maximum (in CCCCCC): 427 nm
absorption maximum (in CCO): 436 nm
absorption maximum (in Cc1ccccc1): 435 nm
absorption maximum (in ClCCl): 437 nm

absorption maximum (in CO): 300 nm
Compound: COc1ccc(-c2nc(-c3cccc(OC)c3)[nH]c2-c2ccc(OC)cc2)cc1

absorption maximum (in CC#N): 330 nm
absorption maximum (in CCCCCC): 325 nm
absorption maximum (in CCO): 333 nm
absorption maximum (in CN(C)C=O): 336 nm
absorption maximum (in ClC(Cl)Cl): 330 nm
Compound: COc1ccc(-n2nc(C#N)c(NC3CCCCC3)n2)cc1

absorption maximum (in C1CCOC1): 336 nm
absorption maximum (in CC#N): 336 nm
absorption maximum (in CN(C)C=O): 336 nm
absorption maximum (in ClCCl): 334 nm
absorption maximum (in c1ccccc1): 336 nm
Compound: CCN1c2ccc(-c3cc(C(F)(F)F)[nH]n3)cc2Sc2cc(-c3cc(C(F)(F)F)[nH]n3)ccc21

absorption maximum (in C1CCCCC1): 397.61 nm
Compound: Nc1ccc2cc3ccccc3cc2c1

absorption maximum (in ClC(Cl)Cl): 652 nm
Compound: Cc1ccc(C2=CC(c3ccc(C)cc3)=[N+]3C2=Nc2c(-c4ccc(C)cc4)cc(-c4ccc(C)cc4)n2[B-]3(F)F)cc1

absorption maximum (in C1CCCCC1): 421 nm
absorption maximum (in CC#N): 422 nm
absorption maximum (in CO): 421 nm
absorption maximum (in ClCCl): 425 nm
Compound: COc1ccc2c(c1)c1c(OC)c3ccccc3c(OC)c1n2C

absorption maximum (in O): 520 nm
Compound: Cc1cc(=O)oc2cc(/[NH+]=C/C=C3/C=C(C(=O)O)NC(C(=O)O)C3)ccc12 (stereo not drawn)

absorption maximum (in ClCCl): 557 nm
Compound: CCCCCCOc1cc(N(CC)CC)ccc1/C=C(\C#N)c1ccc(/C=C/C(=C(C#N)C#N)c2ccc(N(c3ccccc3)c3ccccc3)cc2)s1

absorption maximum (in ClCCl): 522 nm
Compound: C(#Cc1c2ccccc2c(-c2ccccc2)c2cc3ccccc3cc12)c1ccccc1

Compound: c1ccc(-c2nc(-c3ccccc3)nc(-c3ccc(-n4c5ccccc5c5cc6c(cc54)C4c5ccccc5C6c5ccccc54)cc3)n2)cc1
absorption maximum (in Cc1ccccc1): 373 nm

Compound: CC1(C)c2ccccc2N(c2ccccc2)c2ccc(-c3ccc(-c4ccc5c(c4)C(C)(C)c4ccccc4N5c4ccccc4)c4nsnc34)cc21
absorption maximum (in Cc1ccccc1): 475.42 nm

absorption maximum (in CO): 298 nm
absorption maximum (in ClC(Cl)Cl): 299 nm
absorption maximum (in ClCCl): 299 nm
Compound: C(#Cc1ccccc1)c1ccccc1

absorption maximum (in C1CCCCC1): 382 nm
absorption maximum (in CC#N): 377 nm
absorption maximum (in CCO): 379 nm
absorption maximum (in c1ccccc1): 380 nm
Compound: O=C1c2ccccc2-c2ccccc21

absorption maximum (in CO): 605 nm
absorption maximum (in ClC(Cl)Cl): 610 nm
absorption maximum (in O): 623 nm
Compound: COCCOCCOCCNc1cc2c3c(c(NCCOCCOCCOC)cc4c3c1C(=O)N(CCOCCOCCOC)C4=O)C(=O)N(CCOCCOCCOC)C2=O

Compound: Cc1ccc(N(c2ccc(C)cc2)c2ccc(-c3ccc4c(c3)C(=O)c3ccccc3C4=O)cc2)cc1
absorption maximum (in C1CCOC1): 463 nm
absorption maximum (in CCCCCC): 457 nm
absorption maximum (in CCOC(C)=O): 461 nm
absorption maximum (in CCOCC): 459 nm
absorption maximum (in Cc1ccccc1): 470 nm
absorption maximum (in ClC(Cl)(Cl)Cl): 474 nm
absorption maximum (in ClCCl): 476 nm

absorption maximum (in ClCCl): 418 nm
Compound: Cc1cc(-c2ccc(N(c3ccccc3)c3ccccc3)cc2)c2nsnc2c1-c1ccc(C(C)(C)C)cc1

absorption maximum (in CCO): 391 nm
absorption maximum (in ClCCl): 394 nm
Compound: c1cnc(-c2c3ccccc3c(-c3cncnc3)c3ccccc23)nc1

absorption maximum (in C1CCCCC1): 438 nm
absorption maximum (in C1CCOC1): 439 nm
absorption maximum (in CC#N): 437 nm
absorption maximum (in ClC(Cl)Cl): 440 nm
absorption maximum (in c1ccccc1): 440 nm
Compound: Cc1cc(C)c(B(c2c(C)cc(C)cc2C)c2cc3ccc4ccccc4c3c3c2cc(N(C)C)c2ccccc23)c(C)c1

absorption maximum (in O): 487 nm
Compound: CC[n+]1nc2cc3c(cc2c2cc(C)ccc21)N(C)CCC3

absorption maximum (in ClCCl): 497 nm
Compound: CC1=C(C)c2cccc3c2c(cc2nc4ccccc4nc23)O1

Compound: CCN(CC)c1ccc2cc(/C=C/C(=O)/C=C(O)/C=C/c3cc4ccc(N(CC)CC)cc4oc3=O)c(=O)oc2c1
absorption maximum (in C1CCOC1): 518 nm
absorption maximum (in C1COCCO1): 514 nm
absorption maximum (in CC#N): 521 nm
absorption maximum (in CC(C)=O): 519 nm
absorption maximum (in CCOC(C)=O): 514 nm
absorption maximum (in CN(C)C=O): 527 nm
absorption maximum (in CS(C)=O): 540 nm
absorption maximum (in Cc1ccccc1): 518 nm
absorption maximum (in ClC(Cl)Cl): 520 nm
absorption maximum (in ClCCl): 523 nm

absorption maximum (in CC#N): 346 nm
Compound: N#Cc1nn(-c2ccc(Cl)cc2)nc1N1CCCC1

absorption maximum (in ClCCl): 332 nm
Compound: COc1ccc(-c2cccc3ncc(-c4ccccc4)n23)cc1

absorption maximum (in C1CCCCC1): 330 nm
absorption maximum (in C1COCCO1): 315 nm
absorption maximum (in CC#N): 315 nm
absorption maximum (in CCO): 305 nm
absorption maximum (in OCC(F)(F)F): 310 nm
Compound: Cc1cc2c(o1)c(C)cc1ccc(=O)oc12

absorption maximum (in CC#N): 388 nm
Compound: Cc1cc(C)c2nc3[nH]c(=O)[nH]c(=O)c3nc2c1

absorption maximum (in ClCCl): 347 nm
Compound: O=[N+]([O-])c1ccc(C#Cc2ccc3ccc(C#Cc4ccc([N+](=O)[O-])cc4)cc3c2)cc1

Compound: N#Cc1ccc(-c2ccc(C3=CCCCC3)s2)s1
absorption maximum (in C1CCOC1): 366 nm
absorption maximum (in CC#N): 366 nm
absorption maximum (in CCCCCC): 366 nm
absorption maximum (in CCO): 366 nm
absorption maximum (in OCCOCCO): 366 nm
absorption maximum (in c1ccncc1): 369 nm

Compound: CN(C)CCN(Cc1c2ccccc2c(CN(CCN(C)C)c2ccc([N+](=O)[O-])cc2[N+](=O)[O-])c2ccccc12)c1ccc([N+](=O)[O-])cc1[N+](=O)[O-]
absorption maximum (in C1CCCCC1): 340 nm
absorption maximum (in C1CCOC1): 351 nm
absorption maximum (in CC#N): 347 nm
absorption maximum (in CC(C)=O): 352 nm
absorption maximum (in CCO): 341 nm
absorption maximum (in CN(C)C=O): 340 nm
absorption maximum (in CO): 341 nm
absorption maximum (in ClC(Cl)Cl): 342 nm

Compound: N#CC(C#N)=C(c1ccc(N(c2ccccc2)c2ccccc2)cc1)c1ccc(N(c2ccccc2)c2ccccc2)cc1
absorption maximum (in C1CCCCC1): 367.21 nm
absorption maximum (in CC(C)=O): 370.45 nm
absorption maximum (in CN(C)C=O): 374.03 nm
absorption maximum (in Cc1ccccc1): 374.03 nm
absorption maximum (in ClC(Cl)Cl): 381.49 nm

absorption maximum (in CC#N): 337 nm
absorption maximum (in ClCCl): 350 nm
Compound: O=c1c2cc(F)ccc2nc2n1[B-](F)(F)[n+]1ccccc1-2

Compound: N#Cc1cc(C#N)c(-c2ccc(N(c3ccccc3)c3ccccc3)cc2)cc1-c1ccc(N(c2ccccc2)c2ccccc2)cc1
absorption maximum (in Cc1ccccc1): 394 nm

absorption maximum (in CC#N): 314 nm
absorption maximum (in CO): 313 nm
absorption maximum (in O): 309 nm
Compound: CN1CCN(CCCN2c3ccccc3Sc3ccc(Cl)cc32)CC1

absorption maximum (in C1CCCCC1): 320 nm
absorption maximum (in CO): 320 nm
Compound: C/C(=C\c1ccc(Cl)cc1)c1nc2ccccc2o1

Compound: O=c1[nH]c2[n+](c3ccccc13)[B-](F)(F)Oc1ccccc1-2
absorption maximum (in CC#N): 343 nm
absorption maximum (in Cc1ccccc1): 354 nm

Compound: CC1(C)c2ccccc2N(c2ccc(-c3nc([C@]45CC6CC(C[C@@H](C6)C4)C5)nc([C@]45C[C@H]6C[C@@H](C[C@H](C6)C4)C5)n3)cc2)c2ccccc21
absorption maximum (in Cc1ccccc1): 367.8 nm

absorption maximum (in CC#N): 363 nm
Compound: Fc1ccc(/C=C/c2nc3c4ccccc4c4ccccc4c3o2)cc1

absorption maximum (in CC#N): 348 nm
Compound: c1ccc(-c2nc3nc4ccccc4nc3n2-c2ccccc2)cc1

absorption maximum (in O): 407 nm
Compound: Fc1cc(F)c2cc3cccc[n+]3cc2c1

absorption maximum (in ClC(Cl)Cl): 394 nm
Compound: c1ccc(-c2ccc(-c3nc(-c4ccccc4)c(N(c4ccccc4)c4ccccc4)[se]3)cc2)cc1

absorption maximum (in C1COCCO1): 304.29 nm
absorption maximum (in CC#N): 302.81 nm
absorption maximum (in O): 305 nm
Compound: N#Cc1cccc2[nH]ccc12

absorption maximum (in ClCCl): 392 nm
Compound: CC(C)(C)c1ccc(-c2cc(-c3ccc(-c4cc(-c5ccc(C(C)(C)C)cc5)c(C#N)s4)s3)sc2C#N)cc1

absorption maximum (in C1CCOC1): 640 nm
absorption maximum (in ClCCl): 634 nm
Compound: F[B-]1(F)n2c(c3ccccc3c2-c2ccccc2)C=C2c3ccccc3C(c3ccccc3)=[N+]21

absorption maximum (in ClC(Cl)Cl): 562 nm
Compound: CCCC1=CC2=C(c3c(C)cc(C)cc3C)c3cc(CCC)c(-c4ccc5ccc6cccc7ccc4c5c67)n3[B-](F)(F)[N+]2=C1c1ccc2ccc3cccc4ccc1c2c34

absorption maximum (in ClC(Cl)Cl): 338 nm
absorption maximum (in ClCCl): 339 nm
Compound: O=[N+]([O-])c1ccc(C#Cc2ccc3ccccc3c2)cc1

absorption maximum (in ClCCl): 371 nm
Compound: Cc1ccc2nc3cc4c(cc3c(-c3ccccc3)c2c1)[Si](C)(C)O[Si](C)(C)O[Si]4(C)C

absorption maximum (in ClCCl): 454 nm
Compound: CCCCN(CCCC)c1ccc2c#cc3cc4c#cc5ccc(N(CCCC)CCCC)cc5c#cc#cc5cc(C(F)(F)F)ccc5c#cc4cc3c#cc3ccc(C(F)(F)F)cc3c#cc#cc2c1

Compound: OCCSc1cccc2[n+]1[B-](F)(F)n1c(c3cccc4cccc1c43)=N2
absorption maximum (in C1CCOC1): 485 nm
absorption maximum (in CC#N): 480 nm
absorption maximum (in CCCCCC): 484 nm
absorption maximum (in Cc1ccccc1): 487 nm
absorption maximum (in ClCCl): 482 nm and 453 nm

absorption maximum (in CC#N): 387 nm
Compound: C[n+]1ccc2c(ccc3c[n+](C)ccc32)c1

Compound: O=S(=O)(c1ccccc1)c1ccc(-c2ccc3c(c2)c2cc(-c4ccc(S(=O)(=O)c5ccccc5)cc4)ccc2n3-c2ccccc2)cc1
absorption maximum (in CCCCCC): 343 nm
absorption maximum (in CN(C)C=O): 345 nm
absorption maximum (in CO): 343 nm
absorption maximum (in Cc1ccccc1): 340 nm
absorption maximum (in ClCCl): 343 nm

absorption maximum (in CC#N): 381 nm
Compound: COc1ccc(-n2nc(C(=O)c3ccc(Cl)cc3)c(N3CCCC3)n2)cc1

absorption maximum (in ClCCl): 360 nm
Compound: COc1ccc(-c2cnc(/C=C/c3ccc(OC)c(OC)c3)o2)cc1

Compound: F[B-]1(F)N(c2ccccc2)C=Cc2cccc[n+]21
absorption maximum (in C1CCCCC1): 442 nm
absorption maximum (in C1CCOC1): 425 nm
absorption maximum (in CC#N): 412 nm
absorption maximum (in CC(C)=O): 422 nm
absorption maximum (in CCO): 418 nm
absorption maximum (in CCOC(C)=O): 427 nm
absorption maximum (in CO): 417 nm
absorption maximum (in O): 396 nm
